ChEMBL document CHEMBL3608278 (J Med Chem, 2015)

Test: Half life in rat
Type: ADME, organism-based
Details: in vivo

CC[C@H](C)[C@@H]1NC(=O)[C@@H](NC(=O)[C@H](CO)NC(=O)[C@@H](N)CCCNC(=N)N)CSSC[C@@H](C(=O)O)NC(=O)[C@H]([C@@H](C)O)NC(=O)CNC(=O)[C@@H]2CSSC[C@@H]3NC(=O)[C@H](CCC(N)=O)NC(=O)[C@H](Cc4ccccc4)NC(=O)[C@H](C)NC(=O)[C@H]([C@@H](C)O)NC(=O)[C@H](CSSC[C@H](NC(=O)[C@H](Cc4ccccc4)NC(=O)[C@H](CO)NC(=O)[C@H](CC(C)C)NC(=O)[C@H](CCCNC(=N)N)NC(=O)[C@H](Cc4ccc(O)cc4)NC(=O)[C@H](CCCCN)NC(=O)[C@H](CCSC)NC(=O)[C@H](CO)NC(=O)[C@H](Cc4cnc[nH]4)NC(=O)[C@H](CCCCN)NC3=O)C(=O)N[C@@H](CCCNC(=N)N)C(=O)N[C@@H](CCCCN)C(=O)N[C@@H]([C@@H](C)O)C(=O)N2)NC(=O)[C@H](CCCNC(=N)N)NC(=O)[C@H](CO)NC(=O)[C@H](CCCCN)NC(=O)[C@@H]2CCCN2C(=O)[C@H]([C@@H](C)CC)NC(=O)[C@H]([C@@H](C)O)NC(=O)[C@H](CC(=O)O)NC1=O
half-life: 20 min
